The NIST ThermoML archive (doi:10.1016/j.tca.2015.11.010)
± gives the expanded uncertainty stated by the source.

Assay: activity coefficient (dimensionless); of the first substance listed, at infinite dilution; xn = mol fraction of the nth substance listed
Details: 298.15 K; 238 kPa; Liquid; Chromatography; x1 = 0

SMILES	activity coefficient
Cc1ccccc1C [1,2-dimethylbenzene] + CNC=O	9.8 ± 1.1
Cc1cccc(C)c1 [1,3-dimethylbenzene] + CNC=O	10.8 ± 0.7
Cc1ccc(C)cc1 [1,4-dimethylbenzene] + CNC=O	10.4 ± 0.9
C=CCCCCC=C [1,7-octadiene] + CNC=O	23 ± 2.1
C=CC1CC=CCC1 (centres undefined) [4-ethenylcyclohexene] + CNC=O	16.6 ± 1.9
Brc1ccccc1 [bromobenzene] + CNC=O	6.3 ± 0.5
Clc1ccccc1 [chlorobenzene] + CNC=O	5.2 ± 0.6
Cc1ccccc1 [toluene] + CNC=O	7 ± 0.6

Results, then the molecule that gave them:

activity coefficient	SMILES
22.3 ± 2.1	Cc1ccc(C(C)C)cc1 [1-(1-methylethyl)-4-methylbenzene] + CNC=O
4.8 ± 0.4	c1ccccc1 [benzene] + CNC=O
42.3 ± 3.3	C1CCCCCCC1 [cyclooctane] + CNC=O
194 ± 9.1	CCCCCCCCCC [decane] + CNC=O
4 ± 0.3	Fc1ccccc1 [fluorobenzene] + CNC=O
60.5 ± 4.8	CCCCCCC [heptane] + CNC=O
38.6 ± 7.5	CCCCCC [hexane] + CNC=O
26.7 ± 3.7	c1ccc2ccccc2c1 [naphthalene] + CNC=O
122 ± 6.3	CCCCCCCCC [nonane] + CNC=O
83.9 ± 4.5	CCCCCCCC [octane] + CNC=O
318 ± 32	CCCCCCCCCCC [undecane] + CNC=O
